Results taken from patent US4080450A, “2-Carbamoyl-1,2,4,5-tetrahydro-3H-2-benzazepin-3-ones” (U C B, Societe Anonyme, priority 1976, dated 1978).
“And” between values parts separate entries of the source, which are not always exact repeats. Equal entries are not always repeated. Where two headings read alike, the source gives them in different places.

What was measured:
[1] = active avoidance test (memory retention); format: in vivo, rat; conditions: for minimal effective dose: Rattus norvegicus, sc, subcutaneous, minimum dose which lowers the stimulus to below 110 g
Description: The principle of the active avoidance test, which has been developed in our laboratories and used for this purpose, may be described as follows: the withdrawal reaction of a rat's paw subjected to increasing and measured pressure is observed. The pressure at which the withdrawal reaction is produced is called the reaction threshold. The latter is expressed in grams and thus corresponds to the minimum pressure which, when applied to the paw of the animals causes withdrawal. It is read off directly from a scale on the apparatus used. […] A minimum of 20 rats are used for each test (10 treated rats and 10 control rats), the active dose being defined as the minimum dose which lowers the stimulus to below 110 g.
*Stimulus (expressed in g.) initiating the avoidance reaction 24 hours
after the first stimulation.

[2] = Brevatonal test (protection against hypoxic type aggressions); format: in vivo, mice; conditions: i.p.
Procedure: At the doses used, this curarizing agent brings about a respiratory depression which, in turn, brings about a hypoxi-hypercapnic syndrome. A compound capable of protecting the brain during this short period of hypoxia ensures survival. The compounds are administered to groups of 10 mice one hour before the injection of the curarizing agent; concurrently herewith, a control group of 10 mice is given a physiological salt solution prior to the curarizing agent. For each compound, the proportion of mice which survive is compared to the proportion of control mice which survive by the "Fisher exact probability test". This test, called the Brevatonal test, has also been developed in our laboratories.
Intraperitoneal administration (i.p.) of compounds according to the present invention, namely, 2-methylcarbamoyl-1,2,4,5-tetrahydro-3H-2-benzazepin-3-one (compound A), 4,5-dimethyl-2-methylcarbamoyl-1,2,4,5-tetrahydro-3H-2-benzazepin-3-one (compound B) and 4-n-butyl-2-methylcarbamoyl-1,2,4,5-tetrahydro-3H-2-benzazepin-3-one (compound I) under these conditions produced the effects summarized in the following Table II.

[3] = spinal fixation time test (elementary model of memory); format: in vivo, rat; conditions: i.p.
Description: Action on the mnemic processes is shown, in particular, by a reduction in the time for spinal fixation, a test which has been described in the literature (C. GIURGEA and F. MOURAVIEFF-LESUISSE, Arch.Int.Pharmacodyn. 191,(2),(1971),279) as an elementary model of memory and which is endowed with a pharmacological reactivity in good correlation with the clinical physiopathology. In the rat, after unilateral lesion of the cerebellum, there is a postural asymmetry of the hind paws. This asymmetry may persist, even after spinal section, if the animal has been in this situation for a sufficiently long period of time. This time, which is called the spinal fixation time, is 45 minutes under the experimental conditions. On the other hand, if spinal section is performed before the expiry of this period, for example 35 minutes after the onset of the asymmetry, the latter disappears. […] Conversely, any compound which allows the rats to retain the asymmetry (thus achieving spinal fixation) when the spinal section is carried out after 35 minutes, is regarded as being active.
Under these conditions, administration of a compound according to the present invention, for example 2-methyl-carbamoyl-1,2,4,5-tetrahydro-3H-2-benzazepin-3-one (compound A) or 4,5-dimethyl-2-methylcarbamoyl-1,2,4,5-tetrahydro-3H-2-benzazepin-3-one(compound B), produces the following effects: […]

[4] = 30 mg./kg. (0.2 mmole/kg.), Giurgea and Mouravieff-Lesuisse, cited from earlier work
[5] = toxicity, lethal dose (LD50); conditions: in vivo, ip; rat, intraperitoneal
Procedure: The new compounds according to the present invention appear to have a remarkably low toxicity. For example, for compound A, the lethal dose (LD50) in the rat, when administered intraperitoneally, is more than 1000 mg./kg.

Compound: CC1CC(=O)N(C(=O)N2CCOCC2)Cc2ccccc21 (stereo not shown) [C, 5-methyl-2-morpholinocarbonyl-1,2,4,5-tetrahydro-3H-2-benzazepin-3-one]
- minimal effective dose [1]: 2.88 mg/kg and 10 µmol/kg
- Stimulus initiating the avoidance reaction 24 hours after the first stimulation ([1]; subcut. dose 0.28 mg./kg., control (dose 0) 173): 116 g
- Stimulus initiating the avoidance reaction 24 hours after the first stimulation ([1]; subcut. dose 2.88 mg./kg., control (dose 0) 173): 98 g

Compound: CNC(=O)N1Cc2ccc(Cl)cc2CC(C)C1=O (stereo not shown) [E, 7-chloro-4-methyl-2-methylcarbamoyl-1,2,4,5-tetrahydro-3H-2-benzazepin-3-one]
- minimal effective dose [1]: 0.53 mg/kg and 2 µmol/kg
- Stimulus initiating the avoidance reaction 24 hours after the first stimulation ([1]; subcut. dose 0.26 mg./kg., control (dose 0) 163): 115 g
- Stimulus initiating the avoidance reaction 24 hours after the first stimulation ([1]; subcut. dose 0.53 mg./kg., control (dose 0) 163): 83 g

Compound: CNC(=O)N1Cc2ccccc2[C@@H](C)[C@@H](C)C1=O (relative stereo) [B, 4,5-dimethyl-2-methylcarbamoyl-1,2,4,5-tetrahydro-3H-2-benzazepin-3-one]
- minimal effective dose [1]: 1.23 mg/kg and 5 µmol/kg
- Stimulus initiating the avoidance reaction 24 hours after the first stimulation ([1]; subcut. dose 0.49 mg./kg., control (dose 0) 152): 124 g
- Stimulus initiating the avoidance reaction 24 hours after the first stimulation ([1]; subcut. dose 1.23 mg./kg., control (dose 0) 152): 107 g
- Proportion of survivors, treated animals ([2]; 25 mg./kg. (0.1 mmole/kg.), control 1/10): 7/10
- spinal fixation after 35 minutes (animals) ([3]; 24 mg./kg. (0.1 mmole/kg.)): three animals out of seven

Compound: NC(=O)CN1CCCC1=O [piracetam, reference compound]
- minimal effective dose [1]: 3.5 mg/kg and 25 µmol/kg
- Stimulus initiating the avoidance reaction 24 hours after the first stimulation ([1]; subcut. dose 1.5 mg./kg., control (dose 0) 153): 120 g
- Stimulus initiating the avoidance reaction 24 hours after the first stimulation ([1]; subcut. dose 3.5 mg./kg., control (dose 0) 153): 90 g
- retention of the earlier test ([1]; tested 24 hours later, versus control animals): significant degree of retention
- Proportion of survivors, treated animals ([2]; 45 mg./kg. (0.32 mmole/kg.), control 0/10): 1/10
- Proportion of survivors, treated animals ([2]; 142 mg./kg. (1 mmole/kg.), control 2/10): 4/10
- Proportion of survivors, treated animals ([2]; 454 mg./kg. (3.2 mmole/kg.), control 1/10): 8/10
- spinal fixation after 35 minutes (animals) ([4]; same conditions): four animals out of nine
- activity in spinal fixation test [4]: active

Compound: CNC(=O)N1Cc2ccccc2CCC1=O [A, 2-methylcarbamoyl-1,2,4,5-tetrahydro-3H-2-benzazepin-3-one]
- minimal effective dose [1]: 2.18 mg/kg and 10 µmol/kg
- Stimulus initiating the avoidance reaction 24 hours after the first stimulation ([1]; subcut. dose 1.09 mg./kg., control (dose 0) 159): 120 g
- Stimulus initiating the avoidance reaction 24 hours after the first stimulation ([1]; subcut. dose 2.18 mg./kg., control (dose 0) 159): 89 g
- Proportion of survivors, treated animals ([2]; 70 mg./kg. (0.32 mmole/kg.), control 1/10): 6/10
- spinal fixation after 35 minutes (animals) ([3]; 70 mg./kg. (0.3 mmole/kg.)): three animals out of five
- LD50 [5]: > 1000 mg/kg

Compound: CNC(=O)N1Cc2ccc(Cl)cc2CCC1=O [D, 7-chloro-2-methylcarbamoyl-1,2,4,5-tetrahydro-3H-2-benzazepin-3-one]
- minimal effective dose [1]: 2.52 mg/kg and 10 µmol/kg
- Stimulus initiating the avoidance reaction 24 hours after the first stimulation ([1]; subcut. dose 1.26 mg./kg., control (dose 0) 157): 122 g
- Stimulus initiating the avoidance reaction 24 hours after the first stimulation ([1]; subcut. dose 2.52 mg./kg., control (dose 0) 157): 100 g

Compound: CCCCNC(=O)N1Cc2ccccc2CCC1=O [F, 2-n-butylcarbamoyl-1,2,4,5-tetrahydro-3H-2-benzazepin-3-one]
- minimal effective dose [1]: < 0.2 mg/kg and < 0.8 µmol/kg
- Stimulus initiating the avoidance reaction 24 hours after the first stimulation ([1]; subcut. dose 0.2 mg./kg., control (dose 0) 159): 92 g

Compound: CN(C)C(=O)N1Cc2ccccc2CCC1=O [H, 2-dimethylcarbamoyl-1,2,4,5-tetrahydro-3H-2-benzazepin-3-one]
- minimal effective dose [1]: 2.32 mg/kg and 10 µmol/kg
- Stimulus initiating the avoidance reaction 24 hours after the first stimulation ([1]; subcut. dose 2.32 mg./kg.): 90 g

Compound: CCCCNC(=O)N1C(=O)CCc2cc(OC)ccc2C1c1ccccc1 (stereo not shown) [G, 2-n-butylcarbamoyl-7-methoxy-1-phenyl-1,2,4,5-tetrahydro-3H-2-benzazepin-3-one]
- Stimulus initiating the avoidance reaction 24 hours after the first stimulation ([1]; subcut. dose 0.72 mg./kg.): 106 g
- Stimulus initiating the avoidance reaction 24 hours after the first stimulation ([1]; subcut. dose 3.66 mg./kg.): 95 g

Compound: CCCCC1Cc2ccccc2CN(C(=O)NC)C1=O (stereo not shown) [I, 4-n-butyl-2-methylcarbamoyl-1,2,4,5-tetrahydro-3H-2-benzazepin-3-one]
- Proportion of survivors, treated animals ([2]; 27 mg./kg. (0.1 mmole/kg.), control 1/10): 7/10
- Proportion of survivors, treated animals ([2]; 87 mg./kg. (0.32 mmole/kg.), control 1/10): 8/10
